Earlier results, collected in patent US6465495B1, “Preparation of pyridone-based phosphotyrosine mimetics and uses thereof” (OSI Pharmaceuticals, Inc., priority 1998, dated 2002).

Settings: literature values

Q: With `N[C@@H](Cc1ccc(OP(=O)(O)O)cc1)C(=O)O` [pTyr] as the compound, how does the pKA2 read?
A: 5.7
